# From patent US20250276073A1, “BICYCLIC PEPTIDE LIGANDS SPECIFIC FOR TRANSFERRIN RECEPTOR 1 (TfR1)” (BicycleTx Limited, priority 2022, published 2025)
# Starred links: 1 amine or outer side, 2 acyl side, 3 side chain; linkers in the order of their positions; H or OH if unused. Positions of bridges follow the written chain, without caps; N, C: chain ends. Non-standard residues stand in square brackets, D forms with d. Residues, ends and D or L forms follow the SMILES beside them. TATB = O=C(C[*:1])N1CN(C(=O)C[*:2])CN(C(=O)C[*:3])C1; Hyp = O=C(O)[C@@H]1C[C@@H](O)CN1; Tle = CC(C)(C)[C@H](N)C(=O)O
# Biological target: Human TfR1 (Homo sapiens, UniProt P02786)
# Assay: biochemical
# Procedure: Recombinant human and cynomolgus TfR1 were received from Bicycle as Hiss-tagged TfR1 (a.a. 89-760) (ACRO Biosystems, CD1-H5243 and TFR-C524a).
# For analysis of TfR1 peptide binding, a Biacore T200 or S200 instrument was used utilising a capture/coupling approach with a Cytiva NTA chip at 25° C. with 25 mM HEPES, 0.1M NaCl, 0.05% Tween 20 pH 7.4 as the running buffer. Immobilisation was carried out as follows. The chip was pre-equilibrated with an injection of 500 mM EDTA (pH 8), before activation with 5 mM NiSO4. The surface was then activated using standard amine-coupling chemistry. Briefly, the carboxymethyl dextran surface was activated with a 1:1 ratio of 0.4 M 1-ethyl-3-(3-dimethylaminopropyl) carbodiimide hydrochloride (EDC)/0.1 M N-hydroxy succinimide (NHS). The TfR1 protein (human or cynomolgus) was then captured onto the activated surface after dilution into running buffer to 200 nM and 250 nM respectively. Residual activated groups were blocked with a 7 min injection of 1 M ethanolamine (pH 8.5):HBS-N(1:1). Reference surfaces were activated and blocked as above with no TfR1 protein capture. Capture levels were in the range of 1,500-5,000 RU dependent upon the individual study Buffer was changed to 25 mM HEPES, 0.1M NaCl, 0.05% Tween 20 pH 7.4 1% DMSO.
# A dilution series of test peptides was prepared in this buffer with a top peptide concentration of 5 μM and 6 further 2-fold dilutions. The SPR analysis was run at 25° C. at a flow rate of 30 μl/min with 160 seconds association and 700-800 seconds dissociation. Data were corrected for DMSO excluded volume effects. All data were double-referenced for blank injections and reference surface using standard processing procedures and data processing and kinetic fitting were performed using Scrubber software, version 2.0c (BioLogic Software). Data were fitted using simple 1:1 binding model allowing for mass transport effects where appropriate.
# Human TfR1, sequence (P02786 89-760): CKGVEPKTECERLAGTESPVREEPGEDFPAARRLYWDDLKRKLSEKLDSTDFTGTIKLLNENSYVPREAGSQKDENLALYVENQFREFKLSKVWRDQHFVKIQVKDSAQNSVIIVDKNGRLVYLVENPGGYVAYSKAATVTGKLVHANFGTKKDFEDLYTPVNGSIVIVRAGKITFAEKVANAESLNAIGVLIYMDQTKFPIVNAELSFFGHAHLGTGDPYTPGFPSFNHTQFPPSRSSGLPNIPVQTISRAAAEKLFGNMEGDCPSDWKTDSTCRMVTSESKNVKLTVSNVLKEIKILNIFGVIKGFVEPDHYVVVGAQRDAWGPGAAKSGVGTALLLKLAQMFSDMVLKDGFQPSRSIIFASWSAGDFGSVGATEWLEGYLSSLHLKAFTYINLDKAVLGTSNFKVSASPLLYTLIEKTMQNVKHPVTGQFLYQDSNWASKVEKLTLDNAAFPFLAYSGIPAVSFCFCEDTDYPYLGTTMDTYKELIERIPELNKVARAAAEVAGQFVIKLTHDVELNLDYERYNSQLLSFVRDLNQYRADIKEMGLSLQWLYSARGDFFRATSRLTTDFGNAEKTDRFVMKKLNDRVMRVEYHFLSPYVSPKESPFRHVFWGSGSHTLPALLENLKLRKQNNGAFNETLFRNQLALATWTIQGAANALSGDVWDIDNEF
row,SMILES,Kd [nM]
1,"CC(=O)N[C@H]1CSCC(=O)N2CN3CN(C2)C(=O)CSC[C@@H](C(=O)N[C@@H](CCC(=O)O)C(=O)N2CCC[C@H]2C(=O)N[C@@H](Cc2ccc(O)cc2)C(N)=O)NC(=O)[C@H](Cc2ccc(O)cc2)NC(=O)[C@H](CO)NC(=O)[C@H](C(C)(C)C)NC(=O)[C@H](CSCC3=O)NC(=O)CNC(=O)[C@H](CC(C)C)NC(=O)[C@H](Cc2ccc(O)cc2)NC(=O)[C@H](C)NC(=O)[C@H](CC(=O)O)NC(=O)[C@@H]2C[C@@H](O)CN2C(=O)[C@@H]2CCCN2C1=O [BCY23207, CP[HyP]DAYLGC[tBuGly]SYCEPY]",7.7
2,"CC(=O)N[C@H]1CSCC(=O)N2CN3CN(C2)C(=O)CSC[C@@H](C(=O)N[C@@H](CCC(=O)O)C(=O)N2CCC[C@H]2C(=O)N[C@@H](Cc2c[nH]c4ccccc24)C(N)=O)NC(=O)[C@H](Cc2ccc(O)cc2)NC(=O)[C@H](CO)NC(=O)[C@H](C(C)(C)C)NC(=O)[C@H](CSCC3=O)NC(=O)CNC(=O)[C@H](CCC(N)=O)NC(=O)[C@H](Cc2ccc(O)cc2)NC(=O)[C@H](C)NC(=O)[C@H](CC(=O)O)NC(=O)[C@@H]2C[C@@H](O)CN2C(=O)[C@@H]2CCCN2C1=O [BCY23223, CP[HyP]DAYQGC[tBuGly]SYCEPW] (Ac-CP[Hyp]DAYQGC[Tle]SYCEPW-NH2; linker 1-9-13 via TATB)",50
3,"CC(=O)N[C@H]1CSCC(=O)N2CN3CN(C2)C(=O)CSC[C@@H](C(=O)N[C@@H](CCC(=O)O)C(=O)N2CCC[C@H]2C(=O)N[C@@H](Cc2c[nH]c4ccccc24)C(N)=O)NC(=O)[C@H](Cc2ccc(O)cc2)NC(=O)[C@H](CO)NC(=O)[C@H](C(C)(C)C)NC(=O)[C@H](CSCC3=O)NC(=O)CNC(=O)[C@H](CC(C)C)NC(=O)[C@H](Cc2ccc(O)cc2)NC(=O)[C@H](C)NC(=O)[C@H](CC(=O)O)NC(=O)[C@@H]2C[C@@H](O)CN2C(=O)[C@@H]2C[C@@H](O)CN2C1=O [BCY23180, C[HyP][HyP]DAYLGC[tBuGly]SYCEPW]",50
4,"CC(=O)N[C@H]1CSCC(=O)N2CN3CN(C2)C(=O)CSC[C@@H](C(=O)N[C@@H](CCC(=O)O)C(=O)N2CCC[C@H]2C(=O)N[C@@H](CCc2ccc(O)cc2)C(N)=O)NC(=O)[C@H](Cc2ccc(O)cc2)NC(=O)[C@H](CO)NC(=O)[C@H](C(C)(C)C)NC(=O)[C@H](CSCC3=O)NC(=O)CNC(=O)[C@H](CC(C)C)NC(=O)[C@H](Cc2ccc(O)cc2)NC(=O)[C@H](C)NC(=O)[C@H](CC(=O)O)NC(=O)[C@@H]2C[C@@H](O)CN2C(=O)[C@@H]2CCCN2C1=O [BCY23211, CP[HyP]DAYLGC[tBuGly]SYCEP[hTyr]]",7.7
